Test results taken from patent US12612413B2, “Heteroaryl compounds as inhibitors of programmed necrosis pathway, composition and method using the same” (ACCRO BIOSCIENCE INC., priority 2020, dated 2026).
Counter-ions that a name gives are not always drawn.

Tested on: HT-29 cells
Assay: HT-29 cell viability (necroptosis) assay
Assay type: cell-based
Conditions: Homo sapiens, TNF-α (40 ng/mL), Smac mimetic (100 nM), z-VAD (20 μM), 40 h; for EC50: from survival rate curve; for viability at 20 µM: compound at 20 μM, read-out: HT-29(20 μM) Survival
Method: Human colon cancer HT-29 cells were used in a necroptosis assay. For this assay, HT-29 cells were added to 96-well plates. The compounds at different concentrations (0.3, 1.0, 3.0, 10.0, 20.0 μM) were then preprocessed for two hours. TNF-α (40 ng/mL), Smac mimetic (100 nM) and z-VAD (20 μM) were added, and the mixture was incubated for 40 h. Quantitative analysis of cell viability was conducted. DMSO pretreatment group was used as a negative control. Concentration for 50% of maximal effect was calculated according to the curve of the survival rate measured at different concentrations. FIG. 1 depicts the EC50 curves of compound A16.

Structure (SMILES)	EC50 [nM]	viability at 20 µM [%]
O=C1CS(=O)(=O)c2cc3c(Nc4ccc5scnc5c4)ccnc3cc21 [Compound B3, 8-(benzo[d]thiazol-5-ylamino)thieno[2,3-g]quinolin-3(2H)-one 1,1-dioxide hydrochloride]	3240	–
CC1c2cc3nccc(Nc4ccc5scnc5c4)c3cc2S(=O)(=O)C1(C)CC1CC1 (stereo not shown) [Compound B7]	–	19.1
CC1=CS(=O)(=O)c2cc3c(Nc4n[nH]c(C)c4C)ccnc3cc21 [Compound A75]	–	32.3
CC1=CS(=O)(=O)c2cc3c(Nc4n[nH]c5ccc(F)cc45)ccnc3cc21 [Compound A73]	–	40.7
CN1CCC(OC2=CS(=O)(=O)c3cc4c(Nc5ccc6scnc6c5)ccnc4cc32)C1 (stereo not shown) [Compound A114]	310	–
CC1=Cc2cc3nccc(Nc4cc(N)ccc4C)c3cc2S1(=O)=O [Compound A49]	–	60.3
CC1=Cc2cc3nccc(Nc4ccc5[nH]nnc5c4)c3cc2S1(=O)=O [Compound A39]	–	63.5
CC1=Cc2cc3nccc(Nc4cc(O)ccc4C)c3cc2S1(=O)=O [Compound A46]	–	13.1
N#Cc1cccc(Nc2ccnc3cc4c(cc23)S(=O)(=O)C=C4C2CC2)c1 [Compound A97]	–	22.5
C=CCC1(C)C(=O)c2cc3nccc(Nc4ccc5scnc5c4)c3cc2S1(=O)=O (stereo not shown) [Compound B6]	–	42.5
CC1=Cc2cc3nccc(Nc4cnc5snc(C)c5c4)c3cc2S1(=O)=O [Compound A44]	–	20.1
COc1ccc(C2=CS(=O)(=O)c3cc4c(Nc5ccc6scnc6c5)ccnc4cc32)cc1 [Compound A23]	1040	–
O=S1(=O)C=C(OC2CCOC2)c2cc3nccc(Nc4ccc5scnc5c4)c3cc21 (stereo not shown) [Compound A115]	280	–
CC1=Cc2cc3nccc(Nc4cc(N)cc(F)n4)c3cc2S1(=O)=O [Compound A71, 8-((4-amino-6-fluoropyridin-2-yl)amino)-2-methylthieno[2,3-g]quinoline 1,1-dioxide]	–	23.4
CC1=Cc2cc3nccc(Nc4cc(O)ccc4F)c3cc2S1(=O)=O [Compound A52]	260	–
CC1(C)C(=O)c2cc3nccc(Nc4ccc(O)c(C#N)c4)c3cc2S1(=O)=O [Compound B17]	–	22.8
O=S1(=O)C=C(C2CC2)c2cc3nccc(Nc4cncc(O)c4)c3cc21 [Compound A102]	9000	–
CC1=Cc2cc3nccc(Nc4ccc5nc[nH]c5c4)c3cc2S1(=O)=O [Compound A40]	–	5.8
CC1=CS(=O)(=O)c2cc3c(Nc4cc(O)c(F)cc4F)ccnc3cc21 [Compound A83]	1000	–
O=C1c2c(cc3c(Nc4ccc5scnc5c4)ccnc3c2Cl)S(=O)(=O)C12CC=CC2 [Compound B21]	–	4.9
CC1=Cc2cc3nccc(Nc4cc(N)ncc4C)c3cc2S1(=O)=O [Compound A63]	–	48.8
O=S1(=O)C=Cc2cc3nccc(Nc4ccc5scnc5c4)c3c(O)c21 [Compound A109]	–	25
CCC1=CS(=O)(=O)c2cc3c(Nc4ccc5scnc5c4)ccnc3cc21 [Compound A10]	1380	–
Cc1[nH]nc(Nc2ccnc3cc4c(cc23)S(=O)(=O)C=C4C2CC2)c1C [Compound A96]	590	–

Structure (SMILES)	EC50 [nM]	viability at 20 µM [%]
CC1=CS(=O)(=O)c2cc3c(Nc4cc(O)ccc4F)ccnc3cc21 [Compound A79]	–	39.4
CC1=CS(=O)(=O)c2cc3c(Nc4cc(O)cc(C(F)(F)F)c4)ccnc3cc21 [Compound A82]	–	11
N#Cc1cc(O)cc(Nc2ccnc3cc4c(cc23)S(=O)(=O)C=C4C2CC2)c1 [Compound A99]	–	72.7
CC1(O)c2cc3nccc(Nc4ccc5scnc5c4)c3cc2S(=O)(=O)C1(C)C (stereo not shown) [Compound B10, 8-(benzo[d]thiazol-5-ylamino)-3-hydroxy-2,2,3-trimethyl-2,3-dihydrothieno[2,3-g]quinoline 1,1-dioxide]	–	36.4
CC1=Cc2cc3nccc(Nc4ccc5cn[nH]c5c4)c3cc2S1(=O)=O [Compound A35]	–	33
O=S1(=O)C=Cc2cc3nccc(Nc4ccc5scnc5c4)c3cc21 [Compound A2]	1020	–
CC1=CS(=O)(=O)c2cc3c(Nc4ccc5cn[nH]c5c4)ccnc3cc21 [Compound A72]	–	40.7
O=C1NCCc2ccc(Nc3ccnc4cc5c(cc34)S(=O)(=O)C=C5C3CC3)cc21 [Compound A93]	–	11.1
COC1=C(C)S(=O)(=O)c2cc3c(Nc4ccc5scnc5c4)ccnc3cc21 [Compound A19]	200	–
CC1=Cc2cc3nccc(Nc4ccc(O)c(C(F)(F)F)c4)c3cc2S1(=O)=O [Compound A57]	–	15.3
CC1=Cc2cc3nccc(Nc4ccc5ncnn5c4)c3cc2S1(=O)=O [Compound A68]	–	11.9
O=S1(=O)C=C(C2CC2)c2cc3nccc(Nc4cc(O)ccc4F)c3cc21 [Compound A89]	220	–
O=S1(=O)C=C(c2ccncc2)c2cc3nccc(Nc4ccc5scnc5c4)c3cc21 [Compound A28]	1010	–
O=S1(=O)C=C(Br)c2cc3nccc(Nc4ccc5scnc5c4)c3cc21 [Compound A1, 8-(benzo[d]thiazol-5-ylamino)-3-bromothieno[2,3-g]quinoline 1,1-dioxide]	–	4.5
CC1=Cc2cc3nccc(Nc4ccc(O)c(Br)c4)c3cc2S1(=O)=O [Compound A56]	–	23.2
Cc1ccc(O)cc1Nc1ccnc2cc3c(cc12)S(=O)(=O)C(C)(C)C3=O [Compound B13]	520	–
CC1=Cc2cc3nccc(Nc4ccc(O)c(C#N)c4)c3cc2S1(=O)=O [Compound A58]	3950	–
O=S1(=O)C=C(C2CC2)c2cc3nccc(Nc4cc(O)c(Cl)cc4F)c3cc21 [Compound A101]	400	–
CC1=Cc2cc3nccc(Nc4ccnc(N)c4)c3cc2S1(=O)=O [Compound A65, 8-((2-aminopyridin-4-yl)amino)-2-methylthieno[2,3-g]quinoline 1,1-dioxide]	–	19.5
CC1=Cc2cc3nccc(Nc4cnc5scnc5c4)c3cc2S1(=O)=O [Compound A45]	–	27.6
CC1=Cc2cc3nccc(Nc4cc(F)cc(F)n4)c3cc2S1(=O)=O [Compound A70]	–	16.5
O=S1(=O)CC(c2ccccc2)c2cc3nccc(Nc4ccc5scnc5c4)c3cc21 (stereo not shown) [Compound B23]	–	12.7
O=S1(=O)C=C(OCCO)c2cc3nccc(Nc4ccc5scnc5c4)c3cc21 [Compound A16, 8-(benzo[d]thiazol-5-ylamino)-3-(2-hydroxyethoxy)thieno[2,3-g]quinoline 1,1-dioxide]	1290	–
CC(=O)Nc1ccc(C)c(Nc2ccnc3cc4c(cc23)S(=O)(=O)C=C4C)c1 [Compound A77]	–	12.9

Structure (SMILES)	EC50 [nM]	viability at 20 µM [%]
O=S1(=O)C(C2CC2)=Cc2cc3nccc(Nc4ccc5scnc5c4)c3cc21 [Compound A6]	540	–
CC1=Cc2cc3nccc(Nc4ccc(O)c(F)c4)c3cc2S1(=O)=O [Compound A54]	–	31.9
O=S1(=O)C=C(NCCO)c2cc3nccc(Nc4ccc5scnc5c4)c3cc21 [Compound A18]	310	–
Cc1n[nH]c(Nc2ccnc3cc4c(cc23)S(=O)(=O)C(C)(C)C4=O)c1C [Compound B18]	–	22.7
O=S1(=O)C=C(n2ccnc2)c2cc3nccc(Nc4ccc5scnc5c4)c3cc21 [Compound A34]	–	15.5
COC1=CS(=O)(=O)c2cc3c(Nc4ccc5scnc5c4)ccnc3cc21 [Compound A12, 8-(benzo[d]thiazol-5-ylamino)-3-methoxythieno[2,3-g]quinoline 1,1-dioxide]	1030	–
O=S1(=O)C=C(C2CC2)c2cc3nccc(Nc4cc(O)c(F)cc4F)c3cc21 [Compound A100]	950	–
CC1=Cc2cc3nccc(Nc4ccc5c(c4)CNCC5)c3cc2S1(=O)=O [Compound A41]	–	9.8
O=S1(=O)C=C(C2CC2)c2cc3nccc(Nc4ccc5nc[nH]c5c4)c3cc21 [Compound A94]	–	28.9
N#Cc1cc(Nc2ccnc3cc4c(cc23)S(=O)(=O)C=C4C2CC2)ccc1O [Compound A98]	–	14.8
Nc1cc(C2=CS(=O)(=O)c3cc4c(Nc5ccc6scnc6c5)ccnc4cc32)ccn1 [Compound A29]	–	1.1
CC1(C)C(=O)c2cc3nccc(Nc4cc(O)ccc4F)c3cc2S1(=O)=O [Compound B14]	320	–
CCC1=Cc2cc3nccc(Nc4ccc5scnc5c4)c3cc2S1(=O)=O [Compound A4]	980	–
CC(=O)Nc1ccc(C)c(Nc2ccnc3cc4c(cc23)S(=O)(=O)C(C)=C4C)c1 [Compound A86]	–	20.5
CC1(C)C(=O)c2cc3nccc(Nc4cc(O)c(Cl)cc4F)c3cc2S1(=O)=O [Compound B16]	1260	–
COc1ccc(C2CS(=O)(=O)c3cc4c(Nc5ccc6scnc6c5)ccnc4cc32)cc1 (stereo not shown) [Compound B24]	–	16.5
CC1=Cc2cc3nccc(Nc4cc(O)cc(C#N)c4)c3cc2S1(=O)=O [Compound A61]	–	29.2
N#Cc1ccc(C2=CS(=O)(=O)c3cc4c(Nc5ccc6scnc6c5)ccnc4cc32)cc1 [Compound A25]	300	–
CC1=Cc2cc3nccc(Nc4cncc(N)c4)c3cc2S1(=O)=O [Compound A64]	–	20.2
CC(C)C1=CS(=O)(=O)c2cc3c(Nc4ccc5scnc5c4)ccnc3cc21 [Compound A11]	–	34.5
O=S1(=O)C=C(c2ccc(F)cc2)c2cc3nccc(Nc4ccc5scnc5c4)c3cc21 [Compound A26]	570	–
CN(C)CCOC1=CS(=O)(=O)c2cc3c(Nc4ccc5scnc5c4)ccnc3cc21 [Compound A112]	–	37.2
